Patent US11077115B2, “Rorgamma modulators and uses thereof” (Genfit, priority 2017, dated 2021)
Where a name gives a salt, the structure may show the parent alone.

Row | SMILES | melting point [°C]
1 | Cc1ccc(C(NC(=O)Cc2cnc(N3CCS(=O)(=O)CC3)nc2)c2ccc(C)o2)c(N2CCCCC2)c1 (centres unmarked) (as salt: HCl) [Cpd. 20, 2-[2-(1,1-dioxo-1-thiomorpholin-4-yl)pyrimidin-5-yl]-N-{[4-methyl-2-(piperidin-1-yl)phenyl](5-methylfuran-2-yl)methyl}acetamide] | 91
2 | Cc1ccc(C(NC(=O)C2(c3cccc(N4CCS(=O)(=O)CC4)c3)CC2)c2ccc(C)o2)c(C)c1 (centres unmarked) (as salt: HCl) [Cpd. 68, N-[(2,4-dimethylphenyl)(5-methylfuran-2-yl)methyl]-1-[3-(1,1-dioxo-1-thiomorpholin-4-yl)phenyl]cyclopropane-1-carboxamide] | 72
3 | Cc1ccc(C(NC(=O)Cc2ccc(N3CCS(=O)(=O)CC3)cc2)c2ccc(C)o2)c(N2CCCCC2)c1 (centres unmarked) (as salt: HCl) [Cpd. 6, 2-[4-(1,1-dioxo-1-thiomorpholin-4-yl)phenyl]-N-{[4-methyl-2-(piperidin-1-yl)phenyl](5-methylfuran-2-yl)methyl}acetamide] | 101
4 | Cc1ccc(C(NC(=O)C2(c3cnc(N4CCS(=O)(=O)CC4)nc3)CC2)c2ccc(C)o2)c(Cl)c1 (centres unmarked) (as salt: HCl) [Cpd. 52, N-[(2-chloro-4-methylphenyl)(5-methylfuran-2-yl)methyl]-1-[2-(1,1-dioxo-1-thiomorpholin-4-yl)pyrimidin-5-yl]cyclopropane-1-carboxamide] | 98
5 | Cc1ccc(C(NC(=O)C2(c3ccc(N4CCS(=O)(=O)CC4)c(Br)c3)CC2)c2ccc(C)o2)c(N2CCCCC2)c1 (centres unmarked) (as salt: HCl) [Cpd. 37, 1-[3-bromo-4-(1,1-dioxo-1-thiomorpholin-4-yl)phenyl]-N-{[4-methyl-2-(piperidin-1-yl)phenyl](5-methylfuran-2-yl)methyl}cyclopropane-1-carboxamide] | 106
6 | Cc1ccc(N2CCS(=O)(=O)CC2)cc1CC(=O)NC(c1ccccc1)c1ccccc1N1CCCCC1 (centres unmarked) (as salt: HCl) [Cpd. 2, 2-[5-(1,1-dioxo-1-thiomorpholin-4-yl)-2-methylphenyl]-N-{phenyl[2-(piperidin-1-yl)phenyl]methyl}acetamide] | 188
7 | Cc1ccc(C(NC(=O)Cc2ccc(N3CCS(=O)(=O)CC3)c(C)c2)c2ccc(C)o2)c(Br)c1 (centres unmarked) (as salt: HCl) [Cpd. 11, N-[(2-bromo-4-methylphenyl)(5-methylfuran-2-yl)methyl]-2-[4-(1,1-dioxo-1-thiomorpholin-4-yl)-3-methylphenyl]acetamide] | 110
8 | Cc1ccc(C(NC(=O)Cc2ccc(N3CCS(=O)(=O)CC3)cc2C)c2ccc(C)o2)c(Br)c1 (centres unmarked) (as salt: HCl) [Cpd. 21, N-[(2-bromo-4-methylphenyl)(5-methylfuran-2-yl)methyl]-2-[4-(1,1-dioxo-1-thiomorpholin-4-yl)-2-methylphenyl]acetamide] | 173
9 | COCc1ccc(CC(=O)NC(c2ccc(C)o2)c2ccc(C)cc2N2CCCCC2)cc1N1CCS(=O)(=O)CC1 (centres unmarked) (as salt: HCl) [Cpd. 62, 2-[3-(1,1-dioxo-1-thiomorpholin-4-yl)-4-(methoxymethyl)phenyl]-N-{[4-methyl-2-(piperidin-1-yl)phenyl](5-methylfuran-2-yl)methyl}acetamide] | 87
10 | COc1ccc(C(NC(=O)C2(c3ccc(N4CCS(=O)(=O)CC4)cc3)CC2)c2ccc(C)o2)c(N2CCCCCC2)c1 (centres unmarked) (as salt: HCl) [Cpd. 46, N-{[2-(azepan-1-yl)-4-methoxyphenyl](5-methylfuran-2-yl)methyl}-1-[4-(1,1-dioxo-1-thiomorpholin-4-yl)phenyl]cyclopropane-1-carboxamide] | 90
11 | Cc1ccc(C(NC(=O)Cc2cc(N3CCS(=O)(=O)CC3)ccc2C)c2ccc(C)o2)c(N2CCCCC2)c1 (centres unmarked) (as salt: HCl) [Cpd. 5, 2-[5-(1,1-dioxo-1-thiomorpholin-4-yl)-2-methylphenyl]-N-{[4-methyl-2-(piperidin-1-yl)phenyl](5-methylfuran-2-yl)methyl}acetamide] | 101
12 | Cc1ccc(C(NC(=O)Cc2cc(N3CCS(=O)(=O)CC3)ccc2F)c2ccccc2)c(N2CCOCC2)c1 (centres unmarked) (as salt: HCl) [Cpd. 4, 2-[5-(1,1-dioxo-1-thiomorpholin-4-yl)-2-fluorophenyl]-N-{[4-methyl-2-(morpholin-4-yl)phenyl](phenyl)methyl}acetamide] | 207
13 | Cc1ccc(C(NC(=O)C2(c3ccc(N4CCS(=O)(=O)CC4)cc3)CC2)c2ccc(C)o2)c(C)c1 (centres unmarked) (as salt: HCl) [Cpd. 31, N-[(2,4-dimethylphenyl)(5-methylfuran-2-yl)methyl]-1-[4-(1,1-dioxo-1-thiomorpholin-4-yl)phenyl]cyclopropane-1-carboxamide] | 75
14 | Cc1ccc(C(NC(=O)Cc2ccc(N3CCS(=O)(=O)CC3)c(C)c2)c2ccccc2)c(N2CC3CC3C2)c1 (centres unmarked) (as salt: HCl) [Cpd. 23, N-[(2-{3-azabicyclo[3.1.0]hexan-3-yl}-4-methylphenyl)(phenyl)methyl]-2-[4-(1,1-dioxo-1-thiomorpholin-4-yl)-3-methylphenyl]acetamide] | 109
15 | COc1cc(CC(=O)NC(c2ccc(C)o2)c2ccc(C)cc2N2CCCCC2)ccc1N1CCS(=O)(=O)CC1 (centres unmarked) (as salt: HCl) [Cpd. 29, 2-[4-(1,1-dioxo-1-thiomorpholin-4-yl)-3-methoxyphenyl]-N-{[4-methyl-2-(piperidin-1-yl)phenyl](5-methylfuran-2-yl)methyl}acetamide] | 90
16 | Cc1ccc(C(NC(=O)Cc2ccc(CO)c(N3CCS(=O)(=O)CC3)c2)c2ccc(C)o2)c(N2CCCCC2)c1 (centres unmarked) (as salt: HCl) [Cpd. 63, 2-[3-(1,1-dioxo-1-thiomorpholin-4-yl)-4-(hydroxymethyl)phenyl]-N-{[4-methyl-2-(piperidin-1-yl)phenyl](5-methylfuran-2-yl)methyl}acetamide] | 100
17 | Cc1ccc(C(NC(=O)Cc2cnc(N3CCS(=O)(=O)CC3)nc2)c2ccc(C)o2)c(C(F)(F)F)c1 (centres unmarked) (as salt: HCl) [Cpd. 33, 2-[2-(1,1-dioxo-1-thiomorpholin-4-yl)pyrimidin-5-yl]-N-{[4-methyl-2-(trifluoromethyl)phenyl](5-methylfuran-2-yl)methyl}acetamide] | 224
18 | Cc1ccc(C(NC(=O)C2(c3cnc(N4CCS(=O)(=O)CC4)nc3)CC2)c2ccc(Cl)cc2C)o1 (centres unmarked) (as salt: HCl) [Cpd. 53, N-[(4-chloro-2-methylphenyl)(5-methylfuran-2-yl)methyl]-1-[2-(1,1-dioxo-1-thiomorpholin-4-yl)pyrimidin-5-yl]cyclopropane-1-carboxamide] | 162
19 | Cc1ccc(C(NC(=O)Cc2cnc(N3CCS(=O)(=O)CC3)nc2)c2ccc(Cl)cc2Cl)o1 (centres unmarked) (as salt: HCl) [Cpd. 50, N-[(2,4-dichlorophenyl)(5-methylfuran-2-yl)methyl]-2-[2-(1,1-dioxo-1-thiomorpholin-4-yl)pyrimidin-5-yl]acetamide] | 215
20 | COc1ccc(C(NC(=O)Cc2ccc(N3CCS(=O)(=O)CC3)c(C)c2)c2ccc(C)o2)c(N(C)C)c1 (centres unmarked) (as salt: HCl) [Cpd. 15, N-{[2-(dimethylamino)-4-methoxyphenyl](5-methylfuran-2-yl)methyl}-2-[4-(1,1-dioxo-1-thiomorpholin-4-yl)-3-methylphenyl]acetamide] | 98
21 | Cc1ccc(C(NC(=O)Cc2cnc(N3CCS(=O)(=O)CC3)nc2)c2ccc(C)o2)c(Cl)c1 (centres unmarked) (as salt: HCl) [Cpd. 51, N-[(2-chloro-4-methylphenyl)(5-methylfuran-2-yl)methyl]-2-[2-(1,1-dioxo-1-thiomorpholin-4-yl)pyrimidin-5-yl]acetamide] | 208
22 | Cc1ccc(C(NC(=O)Cc2ccc(N3CCS(=O)(=O)CC3)cc2C)c2ccc(C)o2)c(C)c1 (centres unmarked) (as salt: HCl) [Cpd. 19, N-[(2,4-dimethylphenyl)(5-methylfuran-2-yl)methyl]-2-[4-(1,1-dioxo-1-thiomorpholin-4-yl)-2-methylphenyl]acetamide] | 178
23 | Cc1ccc(C(NC(=O)C2(c3ccc(N4CCS(=O)(=O)CC4)cc3)CC2)c2ccc(Cl)o2)c(C)c1 (centres unmarked) (as salt: HCl) [Cpd. 66, N-[(5-chlorofuran-2-yl)(2,4-dimethylphenyl)methyl]-1-[4-(1,1-dioxo-1-thiomorpholin-4-yl)phenyl]cyclopropane-1-carboxamide] | 76
24 | Cc1ccc(C(NC(=O)Cc2ccc(N3CCS(=O)(=O)CC3)nc2)c2ccc(C)o2)c(N2CCCCC2)c1 (centres unmarked) (as salt: HCl) [Cpd. 27, 2-[6-(1,1-dioxo-1-thiomorpholin-4-yl)pyridin-3-yl]-N-{[4-methyl-2-(piperidin-1-yl)phenyl](5-methylfuran-2-yl)methyl}acetamide] | 102
25 | Cc1ccc(C(NC(=O)Cc2ccc(N3CCS(=O)(=O)CC3)cc2)c2ccccc2)c(Br)c1 (centres unmarked) (as salt: HCl) [Cpd. 9, N-[(2-bromo-4-methylphenyl)(phenyl)methyl]-2-[4-(1,1-dioxo-1-thiomorpholin-4-yl)phenyl]acetamide] | 142
26 | Cc1ccc(C(NC(=O)Cc2ccc(N3CCS(=O)(=O)CC3)c(C)c2)c2ccc(C)o2)c(N2CCCCC2)c1 (centres unmarked) (as salt: HCl) [Cpd. 12, 2-[4-(1,1-dioxo-1-thiomorpholin-4-yl)-3-methylphenyl]-N-{[4-methyl-2-(piperidin-1-yl)phenyl](5-methylfuran-2-yl)methyl}acetamide] | 97
27 | Cc1ccc(C(NC(=O)C2(c3cnc(N4CCS(=O)(=O)CC4)nc3)CC2)c2ccc(Cl)cc2Cl)o1 (centres unmarked) (as salt: HCl) [Cpd. 54, N-[(2,4-dichlorophenyl)(5-methylfuran-2-yl)methyl]-1-[2-(1,1-dioxo-1-thiomorpholin-4-yl)pyrimidin-5-yl]cyclopropane-1-carboxamide] | 145
28 | Cc1ccc(C(NC(=O)Cc2cnc(N3CCS(=O)(=O)CC3)nc2C)c2ccc(C)o2)c(C)c1 (centres unmarked) (as salt: HCl) [Cpd. 42, N-[(2,4-dimethylphenyl)(5-methylfuran-2-yl)methyl]-2-[2-(1,1-dioxo-1-thiomorpholin-4-yl)-4-methylpyrimidin-5-yl]acetamide] | 211
29 | Cc1ccc(C(NC(=O)Cc2cc(N3CCOCC3)ccc2F)c2ccccc2)c(N2CCCCC2)c1 (centres unmarked) (as salt: HCl) [Cpd. 8, 2-[2-fluoro-5-(morpholin-4-yl)phenyl]-N-{[4-methyl-2-(piperidin-1-yl)phenyl](phenyl)methyl}acetamide] | 82
